ChEMBL document CHEMBL2417463, “Synthesis and identification of new flavonoids targeting liver X receptor β involved pathway as potential facilitators of Aβ clearance with reduced lipid accumulation” (J Med Chem, 2013)
Calls of active or inactive are those of the source. The calls are words filed in the database; no cut-off is given here.

Tests used:
Type in all cases: cell-based
[1] = target: T1, Oxysterols receptor LXR-beta (Mus musculus) (UniProt Q60644); experiment: Agonist activity at LXRbeta in mouse RAW264.7 cells assessed as induction of ABCA1 promoter activation at 1 uM after 24 hrs by Dual-Glo luciferase reporter gene assay relative to vehicle-treated control
T1 sequence (whole entry): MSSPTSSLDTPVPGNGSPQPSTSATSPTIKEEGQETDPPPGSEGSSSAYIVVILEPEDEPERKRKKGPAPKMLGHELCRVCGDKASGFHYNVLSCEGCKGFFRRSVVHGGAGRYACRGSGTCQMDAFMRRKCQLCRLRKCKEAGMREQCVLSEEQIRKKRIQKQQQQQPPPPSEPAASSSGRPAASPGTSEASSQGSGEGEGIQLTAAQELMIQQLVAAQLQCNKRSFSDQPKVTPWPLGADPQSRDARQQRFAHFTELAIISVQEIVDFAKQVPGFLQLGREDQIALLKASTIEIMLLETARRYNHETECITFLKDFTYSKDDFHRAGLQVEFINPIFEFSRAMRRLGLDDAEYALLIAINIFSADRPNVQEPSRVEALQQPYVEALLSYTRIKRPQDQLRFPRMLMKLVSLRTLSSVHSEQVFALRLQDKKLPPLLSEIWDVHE

[2] = target: T1, Oxysterols receptor LXR-beta (Mus musculus); experiment: Agonist activity at LXRbeta in mouse BV2 cells assessed as degradation of intracellular soluble amyloid beta42 at 1 uM preincubated for 18 hrs followed by soluble amyloid beta42 addition measured after 24 hrs by ELISA relative to vehicle-treated control; details: BV-2
[3] = target: T1, Oxysterols receptor LXR-beta (Mus musculus); experiment: Agonist activity at LXRbeta in mouse BV2 cells assessed as upregulation of ABCA1 protein expression after 12 to 48 hrs by Western blot analysis; details: BV-2
[4] = target: T1, Oxysterols receptor LXR-beta (Mus musculus); experiment: Agonist activity at LXRbeta in mouse BV2 cells assessed as upregulation of ABCA1 protein expression at 1 uM after 12 to 48 hrs by Western blot analysis; details: BV-2
HepG2 [5] = experiment: Induction of intracellular triglyceride accumulation in human HepG2 cells at 1 uM after 4 days relative to vehicle-treated control; details: hepg2, 96 h
HepG2 [6] = experiment: Induction of intracellular triglyceride accumulation in human HepG2 cells at 10 uM after 4 days relative to vehicle-treated control; details: hepg2, 96 h
HEK293 = experiment: Cytotoxicity against HEK293 cells assessed as inhibition of cell viability at 50 uM after 48 hrs by SRB assay relative to vehicle-treated control; details: human, hek293, 48 h
HepG2 [7] = experiment: Induction of cytoplasmic lipid accumulation in human HepG2 cells at 10 uM after 4 days by oil red O staining-based light microscopic analysis; details: hepg2, 96 h
BV-2 = experiment: Cytotoxicity against mouse BV2 cells assessed as inhibition of cell viability at 50 uM after 48 hrs by SRB assay relative to vehicle-treated control; details: bv-2, 48 h
[8] = target: T2, Oxysterols receptor LXR-alpha (Homo sapiens) (UniProt Q13133); experiment: Agonist activity at human LXRalpha transfected in HEK293 cells at 0.1 uM after 24 hrs by luciferase reporter gene assay relative to vehicle-treated control
T2 sequence (whole entry): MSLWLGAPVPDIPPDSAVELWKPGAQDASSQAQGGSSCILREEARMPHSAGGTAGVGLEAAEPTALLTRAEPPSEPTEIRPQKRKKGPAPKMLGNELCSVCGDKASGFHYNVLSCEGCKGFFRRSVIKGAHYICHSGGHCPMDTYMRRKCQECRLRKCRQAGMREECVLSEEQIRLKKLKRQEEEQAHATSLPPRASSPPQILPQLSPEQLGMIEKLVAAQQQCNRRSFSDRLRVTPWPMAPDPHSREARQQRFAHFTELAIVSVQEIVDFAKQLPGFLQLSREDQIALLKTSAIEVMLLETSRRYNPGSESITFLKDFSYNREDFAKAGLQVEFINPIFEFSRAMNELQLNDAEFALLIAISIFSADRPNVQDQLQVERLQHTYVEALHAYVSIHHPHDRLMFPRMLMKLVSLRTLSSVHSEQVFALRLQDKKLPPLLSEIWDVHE

[9] = target: T1, Oxysterols receptor LXR-beta (Mus musculus); experiment: Agonist activity at LXRbeta in mouse RAW264.7 cells assessed as upregulation of ABCA1 protein expression after 18 to 48 hrs by Western blot analysis
[10] = target: T3, Oxysterols receptor LXR-beta (Homo sapiens) (UniProt P55055); experiment: Agonist activity at human LXRbeta transfected in HEK293 cells at 0.1 uM after 24 hrs by luciferase reporter gene assay relative to vehicle-treated control
T3 sequence (whole entry): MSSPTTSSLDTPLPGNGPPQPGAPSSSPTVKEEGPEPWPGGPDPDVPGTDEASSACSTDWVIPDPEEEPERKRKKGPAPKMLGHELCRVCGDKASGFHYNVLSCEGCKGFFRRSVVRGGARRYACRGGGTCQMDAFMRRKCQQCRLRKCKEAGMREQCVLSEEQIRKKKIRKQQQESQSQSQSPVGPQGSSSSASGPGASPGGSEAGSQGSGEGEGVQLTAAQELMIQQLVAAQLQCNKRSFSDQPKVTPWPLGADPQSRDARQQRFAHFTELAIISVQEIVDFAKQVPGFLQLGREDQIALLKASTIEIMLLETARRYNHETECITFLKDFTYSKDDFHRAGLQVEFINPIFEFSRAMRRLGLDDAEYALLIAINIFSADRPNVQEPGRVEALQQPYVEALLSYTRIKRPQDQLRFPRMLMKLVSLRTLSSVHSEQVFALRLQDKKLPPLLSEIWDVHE

[11] = target: T3, Oxysterols receptor LXR-beta (Homo sapiens); experiment: Agonist activity at human LXRbeta transfected in HEK293 cells at 1 uM after 24 hrs by luciferase reporter gene assay relative to vehicle-treated control
[12] = target: T2, Oxysterols receptor LXR-alpha (Homo sapiens); experiment: Agonist activity at human LXRalpha transfected in HEK293 cells at 1 uM after 24 hrs by luciferase reporter gene assay relative to vehicle-treated control
[13] = target: T1, Oxysterols receptor LXR-beta (Mus musculus); experiment: Agonist activity at LXRbeta in mouse BV2 cells assessed as upregulation of apoE protein expression at 0.1 uM after 48 hrs by Western blot analysis relative to vehicle-treated control; details: BV-2
[14] = target: T1, Oxysterols receptor LXR-beta (Mus musculus); experiment: Agonist activity at LXRbeta in mouse BV2 cells assessed as degradation of intracellular amyloid beta42 preincubated for 18 hrs followed by soluble amyloid beta42 addition measured after 24 hrs by ELISA; details: BV-2
[15] = target: T1, Oxysterols receptor LXR-beta (Mus musculus); experiment: Agonist activity at LXRbeta in mouse BV2 cells assessed as upregulation of apoE protein expression at 1 uM after 48 hrs by Western blot analysis relative to vehicle-treated control; details: BV-2
RAW264.7 = experiment: Cytotoxicity against mouse RAW264.7 cells assessed as inhibition of cell viability at 50 uM after 48 hrs by SRB assay relative to vehicle-treated control; details: raw264.7, 48 h
HepG2 [16] = experiment: Cytotoxicity against human HepG2 cells assessed as inhibition of cell viability at 50 uM after 48 hrs by SRB assay relative to vehicle-treated control; details: hepg2, 48 h, 50 µM
[17] = target: T1, Oxysterols receptor LXR-beta (Mus musculus); experiment: Agonist activity at LXRbeta in mouse RAW264.7 cells assessed as induction of ABCA1 promoter activation after 24 hrs by Dual-Glo luciferase reporter gene assay
[18] = target: T1, Oxysterols receptor LXR-beta (Mus musculus); experiment: Agonist activity at LXRbeta in mouse BV2 cells assessed as upregulation of apoE protein expression at 10 uM after 48 hrs by Western blot analysis relative to vehicle-treated control; details: BV-2
[19] = target: T1, Oxysterols receptor LXR-beta (Mus musculus); experiment: Agonist activity at LXRbeta in mouse RAW264.7 cells assessed as upregulation of ABCA1 protein expression at 1 uM after 18 to 48 hrs by Western blot analysis
[20] = target: T1, Oxysterols receptor LXR-beta (Mus musculus); experiment: Agonist activity at LXRbeta in mouse BV2 cells assessed as degradation of intracellular soluble amyloid beta42 at 0.1 uM preincubated for 18 hrs followed by soluble amyloid beta42 addition measured after 24 hrs by ELISA relative to vehicle-treated control; details: BV-2

## COc1cc(N(C)C)ccc1C(=O)/C=C/c1ccc(C)o1
[1]
  fold change (FC): 1.57

## CCOc1ccc(/C=C/C(=O)c2ccc(N)cc2OC)cc1
[1]
  fold change (FC): 1.06

## CC1=C(/C=C/C(C)=C\C=C\C(C)=C\C(=O)O)C(C)(C)CCC1
[1]
  fold change (FC): 2.18

## Nc1ccc(C(=O)CCc2ccc3ccccc3c2)c(O)c1
[1]
  fold change (FC): 1.34

## O=C(O)c1ccc(-c2cc(=O)c3ccc(O)cc3o2)cc1
[1]
  fold change (FC): 1.66
[2]
  Activity: 18%

## Nc1ccc(C(=O)/C=C/c2ccc(-c3ccccc3)cc2)c(O)c1
[1]
  fold change (FC): 1.55

## O=c1cc(-c2ccc3ccccc3n2)oc2cc(O)ccc12
[1]
  fold change (FC): 1.36

## CC(=O)Nc1ccc(C(=O)/C=C/c2ccc(C)s2)c(O)c1
[1]
  fold change (FC): 1.08

## Nc1ccc(C(=O)/C=C/c2csc3ccccc23)c(O)c1
[1]
  fold change (FC): 2.31
[2]
  Activity: 42%

## Cc1ccc(CCC(=O)c2ccc(N)cc2O)o1
[1]
  fold change (FC): 1.9

## COc1cc(N)ccc1C(=O)/C=C/c1ccc2ccccc2c1
[1]
  fold change (FC): 0.88

## CCOc1ccc(/C=C/C(=O)c2ccc(N)cc2O)cc1OC
[1]
  fold change (FC): 1.86
[2]
  Activity: 23%

## Nc1ccc(C(=O)/C=C/c2ccc(Cl)cc2)c(O)c1
[1]
  fold change (FC): 1.16

## Cc1ccc(-c2cc(=O)c3ccc(N)cc3o2)o1
[1]
  fold change (FC): 1.3

## COc1ccc(-c2ccc(/C=C/C(=O)c3ccc(N)cc3O)s2)cc1
[1]
  fold change (FC): 1.09

## O=c1cc(-c2ccc(-c3ccccc3)cc2)oc2cc(O)ccc12
[1]
  fold change (FC): 1.15

## Nc1ccc(C(=O)/C=C/c2ccc3ccccc3c2)c(O)c1
[3]
  Activity: Dose-dependent effect
[4]
  Activity: Active
HepG2 [5]
  Activity: -21%
HepG2 [6]
  Activity: 19%
HEK293
  Activity: Non-toxic
HepG2 [7]
  Activity: Toxic
BV-2
  Activity: Non-toxic
[8]
  fold change (FC): 1.06
[9]
  Activity: Dose-dependent effect
[10]
  fold change (FC): 1.38
[11]
  fold change (FC): 2.22
[12]
  fold change (FC): 1.11
[13]
  fold change (FC): 1.4
[14]
  Activity: Dose-dependent effect
[15]
  fold change (FC): 1.4
RAW264.7
  Activity: Non-toxic
[1]
  fold change (FC): 2.64
HepG2 [16]
  Activity: Non-toxic
[2]
  Activity: 37%
[17]
  Activity: Dose-dependent effect
[18]
  fold change (FC): 1.7
[19]
  Activity: Active
[20]
  Activity: 44%

## CC(C)c1ccc(-c2cc(=O)c3ccc(O)cc3o2)cc1
[1]
  fold change (FC): 1.22

## CC(C)OC(=O)C(C)(C)Oc1ccc(C(=O)c2ccc(Cl)cc2)cc1
[1]
  fold change (FC): 1.1

## CN(CCOc1ccc(CC2SC(=O)NC2=O)cc1)c1ccccn1 (stereo not drawn)
[1]
  fold change (FC): 1.19

## Cc1ccc(-c2cc(=O)c3ccc(N)cc3o2)s1
[1]
  fold change (FC): 1.47

## Nc1ccc(C(=O)/C=C/c2cccc(Oc3ccccc3)c2)c(O)c1
[1]
  fold change (FC): 1.76

## Cc1ccc(/C=C/C(=O)c2ccc(N(C)C)cc2O)o1
[1]
  fold change (FC): 1.02

## Nc1ccc(C(=O)/C=C/c2ccc3c(c2)OCO3)c(O)c1
[1]
  fold change (FC): 1.92
[2]
  Activity: 40%

## COc1ccc(-c2ccc(-c3cc(=O)c4ccc(O)cc4o3)s2)cc1
[1]
  fold change (FC): 1.03

## COc1cc(N)ccc1C(=O)/C=C/c1ccc(C)s1
[1]
  fold change (FC): 1.5

## O=c1cc(-c2csc3ccccc23)oc2cc(O)ccc12
[1]
  fold change (FC): 1.44

## COc1cc(N(C)C)ccc1C(=O)/C=C/c1ccc2ccccc2c1
[1]
  fold change (FC): 1.35

## Nc1ccc(C(=O)/C=C/c2cc(C(F)(F)F)cc(C(F)(F)F)c2)c(O)c1
[1]
  fold change (FC): 1.12

## CCOc1ccc(/C=C/C(=O)c2ccc(N)cc2O)cc1
[1]
  fold change (FC): 1.92
[2]
  Activity: 16%

## CCc1ccc(/C=C/C(=O)c2ccc(N)cc2O)cc1
[1]
  fold change (FC): 1.73

## O=c1cc(-c2cccc(Oc3ccccc3)c2)oc2cc(O)ccc12
[1]
  fold change (FC): 1.17

## CC(C)c1ccc(/C=C/C(=O)c2ccc(N)cc2O)cc1
[1]
  fold change (FC): 2.05

## O=c1cc(-c2ccc3ccccc3c2)oc2cc(O)ccc12
[1]
  fold change (FC): 1.57
[2]
  Activity: 7%

## Nc1ccc(C(=O)/C=C/c2c[nH]c3ccccc23)c(O)c1
[1]
  fold change (FC): 1.76
[2]
  Activity: 39%

## COc1cc(/C=C/C(=O)c2ccc(N)cc2O)cc(OC)c1OC
[1]
  fold change (FC): 0.98

## CCOc1ccc(-c2cc(=O)c3ccc(N)cc3o2)cc1
[1]
  fold change (FC): 1.37

## CSc1ccc(/C=C/C(=O)c2ccc(N)cc2O)cc1
[1]
  fold change (FC): 1.26

## Nc1ccc(C(=O)/C=C/c2ccc(F)cc2)c(O)c1
[1]
  fold change (FC): 1.36

## Cc1ccc(/C=C/C(=O)c2ccc(N)cc2O)s1
[1]
  fold change (FC): 2
[2]
  Activity: 37%

## COc1cccc(/C=C/C(=O)c2ccc(N)cc2O)c1
[1]
  fold change (FC): 2.09
[2]
  Activity: 33%

## COc1cc(N)ccc1C(=O)/C=C/c1ccc(C)o1
[1]
  fold change (FC): 1.2
